Active and inactive are the calls of the source.
Key:
[1] = target: Eukaryotic translation initiation factor 4E (Mus musculus, UniProt P63073); assay: eIF4E–eIF4G protein interaction inhibitors, dose response, biochemical, TR-FRET (AID 855); type: functional;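 note: potency for disrupting eIF4E binding to eIF4GI seen as loss of FRET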
[2] = system: BJ; assay: cytotoxicity toward BJ-TERT-LT-ST fibroblasts, dose response, cell-based, RAS-independent, luminescence (AID 1935); type: functional; conditions: Homo sapiens;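 note: BJ fibroblasts immortalized with TERT plus LT and ST oncogenes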
[3] = Vero cell cytotoxicity, dose response, cytotoxicity control for Vif-APOBEC3G degradation inhibitor project, Vero cells (AID 1117358); type: functional; conditions: Human immunodeficiency virus 1, Vero
[4] = target: Glucose-6-phosphate 1-dehydrogenase (Homo sapiens, UniProt P11413); assay: human G6PD enzyme inhibitors, dose response, selectivity assay for P. falciparum G6PD inhibitor project, biochemical, fluorescence (AID 504792); type: functional
Chain of Glucose-6-phosphate 1-dehydrogenase (P11413 whole entry): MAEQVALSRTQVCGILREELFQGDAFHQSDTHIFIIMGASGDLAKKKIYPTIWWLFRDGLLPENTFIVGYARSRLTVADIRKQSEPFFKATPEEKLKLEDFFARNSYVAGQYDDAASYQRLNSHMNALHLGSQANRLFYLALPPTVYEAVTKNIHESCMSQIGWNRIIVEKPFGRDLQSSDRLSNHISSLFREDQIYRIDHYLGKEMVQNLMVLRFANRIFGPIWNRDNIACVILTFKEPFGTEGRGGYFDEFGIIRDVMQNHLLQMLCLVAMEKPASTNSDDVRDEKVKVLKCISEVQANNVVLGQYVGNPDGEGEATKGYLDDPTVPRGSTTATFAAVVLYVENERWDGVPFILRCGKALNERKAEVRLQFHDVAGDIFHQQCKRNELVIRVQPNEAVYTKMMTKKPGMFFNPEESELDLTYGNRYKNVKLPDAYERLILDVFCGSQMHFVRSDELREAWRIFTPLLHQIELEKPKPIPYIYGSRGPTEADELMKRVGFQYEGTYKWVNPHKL

[5] = target: Cystic fibrosis transmembrane conductance regulator/Golgi-associated PDZ and coiled-coil motif-containing protein (Homo sapiens, UniProt P13569+Q9HD26); assay: CAL PDZ peptide-binding inhibitors, dose response, biochemical, fluorescence polarization, Cerulean-tagged CAL PDZ, cherry-picks (AID 504773)
Chain of Cystic fibrosis transmembrane conductance regulator/Golgi-associated PDZ and coiled-coil motif-containing protein (P13569 whole entry, other chains not shown, the tested form may be a part): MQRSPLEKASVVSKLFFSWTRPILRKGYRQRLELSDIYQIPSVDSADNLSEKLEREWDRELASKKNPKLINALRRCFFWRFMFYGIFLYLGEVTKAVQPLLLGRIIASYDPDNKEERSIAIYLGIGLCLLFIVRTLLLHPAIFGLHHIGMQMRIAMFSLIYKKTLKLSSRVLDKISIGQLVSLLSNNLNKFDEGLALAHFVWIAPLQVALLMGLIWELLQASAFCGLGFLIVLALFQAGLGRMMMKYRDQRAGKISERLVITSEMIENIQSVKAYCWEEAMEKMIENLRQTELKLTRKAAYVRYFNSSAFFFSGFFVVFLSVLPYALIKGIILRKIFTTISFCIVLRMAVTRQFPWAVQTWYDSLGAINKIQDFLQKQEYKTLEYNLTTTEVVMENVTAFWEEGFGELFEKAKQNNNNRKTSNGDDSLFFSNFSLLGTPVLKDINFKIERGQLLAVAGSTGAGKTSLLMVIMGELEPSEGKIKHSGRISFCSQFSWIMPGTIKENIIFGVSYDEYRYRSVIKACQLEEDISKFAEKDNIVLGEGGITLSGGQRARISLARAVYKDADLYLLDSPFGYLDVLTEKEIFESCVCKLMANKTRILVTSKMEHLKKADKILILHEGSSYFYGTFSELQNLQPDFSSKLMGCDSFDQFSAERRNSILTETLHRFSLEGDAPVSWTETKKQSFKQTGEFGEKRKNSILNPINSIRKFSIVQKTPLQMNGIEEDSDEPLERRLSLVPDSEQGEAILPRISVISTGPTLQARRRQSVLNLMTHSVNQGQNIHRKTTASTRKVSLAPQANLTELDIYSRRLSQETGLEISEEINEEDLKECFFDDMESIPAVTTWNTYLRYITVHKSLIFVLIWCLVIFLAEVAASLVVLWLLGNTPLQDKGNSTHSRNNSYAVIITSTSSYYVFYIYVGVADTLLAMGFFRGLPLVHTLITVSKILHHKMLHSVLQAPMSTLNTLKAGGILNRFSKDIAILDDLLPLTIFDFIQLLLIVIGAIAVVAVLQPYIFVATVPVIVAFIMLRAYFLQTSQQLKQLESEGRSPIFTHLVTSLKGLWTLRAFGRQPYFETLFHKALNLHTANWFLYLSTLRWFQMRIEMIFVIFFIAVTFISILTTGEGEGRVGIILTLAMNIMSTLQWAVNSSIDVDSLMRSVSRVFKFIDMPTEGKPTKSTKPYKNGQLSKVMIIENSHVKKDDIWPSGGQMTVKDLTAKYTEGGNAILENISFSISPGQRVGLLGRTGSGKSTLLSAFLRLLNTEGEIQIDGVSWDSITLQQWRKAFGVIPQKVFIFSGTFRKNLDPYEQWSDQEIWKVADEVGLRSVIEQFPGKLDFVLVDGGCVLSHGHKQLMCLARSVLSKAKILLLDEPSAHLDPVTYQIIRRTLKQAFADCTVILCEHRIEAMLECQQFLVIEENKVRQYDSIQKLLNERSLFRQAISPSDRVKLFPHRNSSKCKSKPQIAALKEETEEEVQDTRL

[6] = target: T1, Hexokinase-1 (Homo sapiens, UniProt P19367); assay: SAR analysis of small molecule inhibitors of hexokinase domain containing I (HKDC1) in the hexokinase 1 selectivity assay. [Related pubchem assays (depositor defined):AID493160, AID493190]; type: functional
T1 sequence (P19367 whole entry): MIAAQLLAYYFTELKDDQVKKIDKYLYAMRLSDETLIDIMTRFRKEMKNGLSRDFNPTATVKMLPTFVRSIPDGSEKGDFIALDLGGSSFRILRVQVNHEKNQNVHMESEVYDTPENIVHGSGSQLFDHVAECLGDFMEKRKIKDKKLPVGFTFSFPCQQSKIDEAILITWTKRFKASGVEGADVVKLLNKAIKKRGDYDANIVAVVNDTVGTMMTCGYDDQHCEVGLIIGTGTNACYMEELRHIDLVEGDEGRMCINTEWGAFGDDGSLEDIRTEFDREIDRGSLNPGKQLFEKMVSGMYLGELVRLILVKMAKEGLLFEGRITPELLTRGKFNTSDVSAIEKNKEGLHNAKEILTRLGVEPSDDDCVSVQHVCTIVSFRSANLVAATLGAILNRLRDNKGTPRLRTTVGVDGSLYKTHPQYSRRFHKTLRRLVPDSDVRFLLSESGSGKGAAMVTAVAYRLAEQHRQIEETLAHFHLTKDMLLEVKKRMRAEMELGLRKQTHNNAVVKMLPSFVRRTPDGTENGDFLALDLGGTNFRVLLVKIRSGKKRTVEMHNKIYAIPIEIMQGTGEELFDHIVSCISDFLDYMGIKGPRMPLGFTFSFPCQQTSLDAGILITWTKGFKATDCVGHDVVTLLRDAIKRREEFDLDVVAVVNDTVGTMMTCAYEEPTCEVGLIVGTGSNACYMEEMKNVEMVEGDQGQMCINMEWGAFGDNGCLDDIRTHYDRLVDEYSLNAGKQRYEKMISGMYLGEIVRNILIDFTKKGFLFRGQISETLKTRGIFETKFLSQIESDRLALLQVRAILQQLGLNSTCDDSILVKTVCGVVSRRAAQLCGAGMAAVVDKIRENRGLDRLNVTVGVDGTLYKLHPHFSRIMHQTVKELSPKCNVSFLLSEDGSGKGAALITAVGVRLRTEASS

[7] = ARNT/TACC3 interaction disruptors, potency, confirmation, biochemical, AlphaScreen, cherry-picked samples (AID 651703); type: functional, Homo sapiens;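 note: His-tagged ARNT PAS-B domain paired with GST-TACC3 E629A dimer coactivator fragment; potency of inhibitors that break up the complex and lower AlphaScreen signal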
[8] = inhibitors of firefly luciferase expression or activity, dose response, H4 neuroglioma cells, luminescence (AID 1990); type: functional, cell-based
[9] = Luminescence-based dose response cell-based high throughput screening assay for cytotoxic compounds using the IEC-6 intestinal epithelial cell line. [Related pubchem assays: 1858 (Summary AID.), 1825 (Counterscreen.), 1907 (Confirmation screen.)]; type: functional
[10] = target: T2, C-C chemokine receptor type 6 (Homo sapiens, UniProt P51684); assay: CCR6 receptor antagonists, dose response, cell-based, luminescent beta-arrestin readout (AID 504728); type: functional
T2 sequence (P51684 whole entry): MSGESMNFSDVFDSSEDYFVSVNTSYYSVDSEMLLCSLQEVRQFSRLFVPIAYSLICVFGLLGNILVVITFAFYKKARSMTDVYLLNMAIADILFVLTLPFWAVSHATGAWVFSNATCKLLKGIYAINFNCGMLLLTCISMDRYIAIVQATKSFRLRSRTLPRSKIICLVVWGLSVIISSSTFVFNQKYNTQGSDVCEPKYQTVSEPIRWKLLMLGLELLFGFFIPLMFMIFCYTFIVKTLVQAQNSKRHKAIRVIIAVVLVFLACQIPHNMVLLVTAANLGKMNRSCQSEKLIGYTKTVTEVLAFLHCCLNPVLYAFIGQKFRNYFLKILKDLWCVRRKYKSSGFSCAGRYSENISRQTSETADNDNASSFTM

[11] = target: T3, Rac GTPase-activating protein 1 (Homo sapiens, UniProt Q9H0H5); assay: MgcRacGAP GTPase-activating activity inhibitors, confirmation, biochemical, ADP Hunter fluorescence, primary and confirmatory (AID 624330); type: functional
T3 sequence (Q9H0H5 whole entry): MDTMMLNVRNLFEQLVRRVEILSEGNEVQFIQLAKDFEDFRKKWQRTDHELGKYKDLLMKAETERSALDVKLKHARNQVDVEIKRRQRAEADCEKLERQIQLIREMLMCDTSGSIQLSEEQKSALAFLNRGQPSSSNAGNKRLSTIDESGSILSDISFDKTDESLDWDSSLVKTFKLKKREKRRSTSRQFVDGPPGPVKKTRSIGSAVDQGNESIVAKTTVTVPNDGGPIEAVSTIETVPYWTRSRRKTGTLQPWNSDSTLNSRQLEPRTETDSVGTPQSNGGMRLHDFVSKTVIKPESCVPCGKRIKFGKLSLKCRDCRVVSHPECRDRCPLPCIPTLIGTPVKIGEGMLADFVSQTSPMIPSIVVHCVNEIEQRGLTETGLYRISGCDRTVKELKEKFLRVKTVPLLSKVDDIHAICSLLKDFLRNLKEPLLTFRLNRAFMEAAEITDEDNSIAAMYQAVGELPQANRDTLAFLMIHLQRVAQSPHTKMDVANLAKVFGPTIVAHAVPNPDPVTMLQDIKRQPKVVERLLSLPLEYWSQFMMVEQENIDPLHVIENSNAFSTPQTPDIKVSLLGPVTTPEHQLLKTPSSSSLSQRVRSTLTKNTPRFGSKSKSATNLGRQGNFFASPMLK

[12] = target: 1-phosphatidylinositol 4,5-bisphosphate phosphodiesterase beta-3 (Homo sapiens, UniProt Q01970); assay: Fluorescence-based biochemical high throughput dose response assay to identify inhibitors of phospholipase C isozymes (PLC-B3).
Chain of 1-phosphatidylinositol 4,5-bisphosphate phosphodiesterase beta-3 (Q01970 whole entry): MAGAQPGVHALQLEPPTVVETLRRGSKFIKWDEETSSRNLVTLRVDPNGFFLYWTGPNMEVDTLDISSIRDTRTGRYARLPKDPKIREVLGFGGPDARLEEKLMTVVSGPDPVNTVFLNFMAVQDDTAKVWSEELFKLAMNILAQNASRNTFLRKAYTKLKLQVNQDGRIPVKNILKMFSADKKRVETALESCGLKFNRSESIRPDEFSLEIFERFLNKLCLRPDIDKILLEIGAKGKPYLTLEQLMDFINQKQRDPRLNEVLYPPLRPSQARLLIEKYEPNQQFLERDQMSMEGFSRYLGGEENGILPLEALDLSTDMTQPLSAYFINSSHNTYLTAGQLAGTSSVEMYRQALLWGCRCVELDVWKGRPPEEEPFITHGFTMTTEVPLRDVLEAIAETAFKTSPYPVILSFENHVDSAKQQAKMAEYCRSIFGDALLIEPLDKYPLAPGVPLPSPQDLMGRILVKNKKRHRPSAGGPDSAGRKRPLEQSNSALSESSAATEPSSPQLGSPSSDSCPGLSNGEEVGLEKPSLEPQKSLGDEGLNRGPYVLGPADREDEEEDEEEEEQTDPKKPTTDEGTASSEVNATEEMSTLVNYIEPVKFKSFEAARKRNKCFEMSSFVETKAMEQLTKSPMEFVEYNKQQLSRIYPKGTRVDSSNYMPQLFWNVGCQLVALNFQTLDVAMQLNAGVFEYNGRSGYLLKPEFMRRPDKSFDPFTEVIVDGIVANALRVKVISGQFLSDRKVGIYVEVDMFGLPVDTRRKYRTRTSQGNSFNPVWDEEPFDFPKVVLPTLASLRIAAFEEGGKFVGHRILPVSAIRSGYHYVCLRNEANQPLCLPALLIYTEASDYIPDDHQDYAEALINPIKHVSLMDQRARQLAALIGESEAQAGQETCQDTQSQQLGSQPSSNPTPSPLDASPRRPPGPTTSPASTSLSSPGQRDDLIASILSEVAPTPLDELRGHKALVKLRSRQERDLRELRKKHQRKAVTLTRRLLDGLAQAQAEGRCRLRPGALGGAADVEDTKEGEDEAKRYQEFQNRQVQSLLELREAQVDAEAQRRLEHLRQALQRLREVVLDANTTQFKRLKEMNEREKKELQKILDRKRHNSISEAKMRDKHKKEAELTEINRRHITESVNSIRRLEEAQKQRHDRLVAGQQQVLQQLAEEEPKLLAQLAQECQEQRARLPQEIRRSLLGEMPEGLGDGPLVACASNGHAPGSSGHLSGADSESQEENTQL

[13] = target: Transitional endoplasmic reticulum ATPase (Homo sapiens, UniProt P55072, C522A); assay: C522A mutant p97 ATPase inhibitors, dose response, counter-screen for p97 inhibitor project, biochemical, luminescence (AID 1544)
Chain of Transitional endoplasmic reticulum ATPase (Homo sapiens, UniProt P55072, C522A) (P55072 2-806 C522A limits assumed): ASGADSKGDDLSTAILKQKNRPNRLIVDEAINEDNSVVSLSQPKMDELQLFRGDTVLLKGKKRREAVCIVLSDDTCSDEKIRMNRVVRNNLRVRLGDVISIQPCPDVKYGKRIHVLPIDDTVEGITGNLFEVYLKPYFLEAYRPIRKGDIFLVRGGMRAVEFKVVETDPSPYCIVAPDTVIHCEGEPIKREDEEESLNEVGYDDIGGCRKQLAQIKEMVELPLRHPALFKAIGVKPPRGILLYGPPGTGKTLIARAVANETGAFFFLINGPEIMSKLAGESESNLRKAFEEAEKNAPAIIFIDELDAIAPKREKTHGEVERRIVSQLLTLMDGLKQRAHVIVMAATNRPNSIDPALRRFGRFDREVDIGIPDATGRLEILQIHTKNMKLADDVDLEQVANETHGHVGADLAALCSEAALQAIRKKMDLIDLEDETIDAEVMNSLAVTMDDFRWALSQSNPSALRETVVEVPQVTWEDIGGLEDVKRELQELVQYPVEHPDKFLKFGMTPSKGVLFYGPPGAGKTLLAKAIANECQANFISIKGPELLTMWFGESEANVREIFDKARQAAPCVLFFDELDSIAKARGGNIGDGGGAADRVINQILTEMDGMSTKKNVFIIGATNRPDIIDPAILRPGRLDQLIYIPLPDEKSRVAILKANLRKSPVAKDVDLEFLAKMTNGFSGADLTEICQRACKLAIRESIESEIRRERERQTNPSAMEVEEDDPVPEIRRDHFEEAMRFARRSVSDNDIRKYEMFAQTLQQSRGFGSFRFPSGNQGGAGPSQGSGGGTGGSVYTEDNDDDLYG

[14] = target: Transitional endoplasmic reticulum ATPase (Homo sapiens, UniProt P55072); assay: p97 ATPase inhibitors, dose response, biochemical (AID 1534)
Chain of Transitional endoplasmic reticulum ATPase (Homo sapiens, UniProt P55072) (P55072 whole entry): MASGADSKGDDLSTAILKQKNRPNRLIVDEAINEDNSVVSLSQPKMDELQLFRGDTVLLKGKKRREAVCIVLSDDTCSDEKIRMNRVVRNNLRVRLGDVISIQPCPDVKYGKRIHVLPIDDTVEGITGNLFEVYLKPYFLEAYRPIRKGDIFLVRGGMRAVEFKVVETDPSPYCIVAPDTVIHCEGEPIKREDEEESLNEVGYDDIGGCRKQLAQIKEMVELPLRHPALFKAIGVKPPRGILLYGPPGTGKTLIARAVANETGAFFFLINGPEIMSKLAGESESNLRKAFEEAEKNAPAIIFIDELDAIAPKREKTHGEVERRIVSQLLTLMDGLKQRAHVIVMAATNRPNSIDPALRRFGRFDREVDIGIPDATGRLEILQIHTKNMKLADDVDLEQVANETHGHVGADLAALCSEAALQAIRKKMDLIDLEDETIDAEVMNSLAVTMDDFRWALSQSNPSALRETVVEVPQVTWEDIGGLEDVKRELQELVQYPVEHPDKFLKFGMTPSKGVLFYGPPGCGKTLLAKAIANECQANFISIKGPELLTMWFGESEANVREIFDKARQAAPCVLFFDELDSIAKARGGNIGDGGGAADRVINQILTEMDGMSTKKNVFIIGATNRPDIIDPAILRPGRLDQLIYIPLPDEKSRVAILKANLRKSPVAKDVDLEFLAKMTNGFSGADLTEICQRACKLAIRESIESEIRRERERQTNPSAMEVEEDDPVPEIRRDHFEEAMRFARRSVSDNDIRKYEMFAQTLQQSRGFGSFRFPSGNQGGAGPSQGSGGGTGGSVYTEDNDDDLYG

Chain of Eukaryotic translation initiation factor 4E (P63073 whole entry): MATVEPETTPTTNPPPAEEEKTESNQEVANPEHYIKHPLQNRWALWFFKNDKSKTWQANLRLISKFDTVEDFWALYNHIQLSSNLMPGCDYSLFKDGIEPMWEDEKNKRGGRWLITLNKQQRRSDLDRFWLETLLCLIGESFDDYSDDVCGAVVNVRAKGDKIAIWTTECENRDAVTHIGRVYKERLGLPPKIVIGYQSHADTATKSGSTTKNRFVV

CCc1nnc(NS(=O)(=O)c2ccc(NC(=S)NC(=O)/C=C/c3ccc(C(C)C)cc3)cc2)s1
IC50 [1]: 22.9 µM (active)

O=C(/C=C/c1ccco1)Nc1ccc(Oc2ccccc2)cc1
EC50 [2]: > 150 µM (inconclusive)
CC50 [3]: > 40 µM (active)

COc1ccc(S(=O)(=O)Nc2cc(SCC(=O)O)c(O)c3ccccc23)cc1
IC50 [4]: 21.1 µM (inactive)
AC50 [5]: 33.1 µM (active)
IC50 [6]: > 80 µM (inactive)
AC50 [7]: 126 µM (active)

O=C1C(Nc2ccc(O)cc2)=C/C(=N/S(=O)(=O)c2cccs2)c2ccccc21
EC50 [8]: 2.88 µM (inconclusive)
IC50 [9]: 0.428 µM (active)
IC50 [10]: > 66.6 µM (inactive)
IC50 [11]: 41.8 µM (active)
IC50 [12]: > 40.8 µM (inactive)

CC1CC(=O)c2c(cc3c(-c4c(O)cc(O)c5c(O)c6c(cc45)OC(C)CC6=O)c(O)cc(O)c3c2O)O1 (centres undefined) [CEPHALOCHROMIN]
IC50 [13]: > 50 µM (not active)
IC50 [14]: 43.9 µM (not active)

Source: ChEMBL document CHEMBL1201862, “PubChem BioAssay data set” (2004)
